Experimental data: US8865935B2, “Purification methods for betulonic acid and Boc-lysinated betulonic acid, and organic synthesis of betulonic acid amides with piperazine derivatives” (priority 2011, dated 2014)

Key:
[1] = system: Ochrobactrum anthropi KCTC 22833T; assay: antibacterial test, paper disc diffusion method; type: cell-based; settings: paper disc (diameter 8 mm) wetted with 60 μL of 1 mg/mL sample in DMSO on agar plate, test repeated three times
Description: (§1) An antibacterial test was carried out using the above-mentioned paper disc diffusion method. Betulonic acid amide was dissolved in DMSO to make a sample having a concentration of 1 mg/mL. A filter paper (diameter: 8 mm, manufactured by Advantec, Toyo Roshi Kaisha, Japan) wetted with 60 μL of the sample was attached to an agar plate, and then a circumference, around which bacteria were not cultivated, was measured. DMSO was used as a negative control, and gentamicin was used as a positive control. The antibacterial test was repeatedly carried out three times.

[2] = system: Ochrobactrum intermedium KACC 11952T; assay: antibacterial test, paper disc diffusion method; type: cell-based; settings: paper disc (diameter 8 mm) wetted with 60 μL of 1 mg/mL sample in DMSO on agar plate, test repeated three times
Description: as §1

[3] = system: Stenotrophomonas maltophilia KCTC 1773T; assay: antibacterial test, paper disc diffusion method; type: cell-based; settings: for Antibacterial zone of inhibition (mm) S. maltophila: paper disc (diameter 8 mm) wetted with 60 μL of 1 mg/mL sample in DMSO on agar plate, test repeated three times
Description: as §1

[4] = system: Stenotrophomonas nitritireducens KACC 10891T; assay: antibacterial test, paper disc diffusion method; type: cell-based; settings: paper disc (diameter 8 mm) wetted with 60 μL of 1 mg/mL sample in DMSO on agar plate; test repeated three times
Description: as §1

four kinds of bacteria = assay: antibacterial test, paper disc diffusion method, all strains; type: cell-based; settings: from Table 3, 1 mg/mL sample
Description: An antibacterial test was carried out using the above-mentioned paper disc diffusion method. Betulonic acid amide was dissolved in DMSO to make a sample having a concentration of 1 mg/mL. A filter paper (diameter: 8 mm, manufactured by Advantec, Toyo Roshi Kaisha, Japan) wetted with 60 μL of the sample was attached to an agar plate, and then a circumference, around which bacteria were not cultivated, was measured. DMSO was used as a negative control, and gentamicin was used as a positive control. The antibacterial test was repeatedly carried out three times. Ochrobactrum anthropi KCTC 22833T and Stenotrophomonas maltophilia KCTC 1773T used in the antibacterial test were purchased from Korean Collection for Type Culture (KCTC), and Ochrobactrum intermedium KACC 11952T and Stenotrophomonas nitritireducens KACC 10891T used in the antibacterial test were purchased from Korean Agricultural Culture Collection (KACC). The diameters of clear circular zones of samples 2 to 7 of FIG. 1 were measured by a paper disc diffusion method, and compared to that of gentamicin. […] Particularly, it can be ascertained that the activity of sample 2 (4-(3′,4′-dichlorophenylpiperazin-1-yl) amide betulonic acid) and the activity of sample 7 (4-(4′-trifluoromethylphenylpiperazin-1-yl) amide betulonic acid) are highest.

Compound | Antibacterial zone of inhibition (mm) O. anthropi [1] [mm] | Antibacterial zone of inhibition (mm) O. intermedium [2] [mm] | Antibacterial zone of inhibition (mm) S. maltophila [3] [mm] | Antibacterial zone of inhibition (mm) S. nitritireducens [4] [mm] | other results
4-(4′-trifluoromethylphenylpiperazine-1-yl) amide betulonic acid [Compound 6 of FIG. 1] | 15 | 14 | 14 | 16 | –
C=C(C)[C@@H]1CC[C@]2(C(=O)N3CCN(c4ccc(F)cc4)CC3)CC[C@]3(C)C(CC[C@@H]4[C@@]5(C)CCC(=O)C(C)(C)C5CC[C@]43C)[C@@H]12 (stereo partly drawn) [Compound 1 of FIG. 1, 4-(4′-fluorophenylpiperazine-1-yl) amide betulonic acid] | – | – | – | 11 | growth inhibition effect (four kinds of bacteria): growth inhibition effect only to Stenotrophomonas nitritireducens; melting point: 151 to 152 °C
C=C(C)[C@@H]1CC[C@]2(C(=O)N3CCN(c4ccc(Cl)c(Cl)c4)CC3)CC[C@]3(C)C(CC[C@@H]4[C@@]5(C)CCC(=O)C(C)(C)C5CC[C@]43C)[C@@H]12 (stereo partly drawn) [Compound 2 of FIG. 1, 4-(3′,4′-dichlorophenylpiperazine-1-yl) amide betulonic acid] | – | – | – | 15 | zone of inhibition at 1000 µg/mL ([1]; Brucella anthropi, KCTC22833T, read-out: Antibacterial zone of inhibition (mm) O. anthropi): 15 mm; zone of inhibition at 1000 µg/mL ([2]; Brucella intermedia, KACC11952T, read-out: Antibacterial zone of inhibition (mm) O. intermedium): 14 mm; zone of inhibition at 1000 µg/mL ([3]; Stenotrophomonas maltophilia, KCTC1773T, read-out: Antibacterial zone of inhibition (mm) S. maltophila): 13 mm; activity (ranking among the samples) (four kinds of bacteria): highest; melting point: 182 to 183 °C
C=C(C)[C@@H]1CC[C@]2(C(=O)N3CCN(c4ccccn4)CC3)CC[C@]3(C)[C@H](CC[C@@H]4[C@@]5(C)CCC(=O)C(C)(C)[C@@H]5CC[C@]43C)[C@@H]12 [Compound 4 of FIG. 1, 4-(2-pyridylpiperazine-1-yl) amide betulonic acid] | – | 10 | 10 | – | –
C=C(C)C1CCC2(C(=O)N3CCN(c4ncccn4)CC3)CCC3(C)C(CCC4C5(C)CCC(=O)C(C)(C)C5CCC43C)C12 (stereo not drawn) [Compound 5 of FIG. 1, 4-(2-pyrimidylpiperazine-1-yl) amide betulonic acid] | 13 | 10 | 10 | 11 | –
C=C(C)[C@@H]1CC[C@]2(C(=O)N3CCN(c4ccc(C(F)(F)F)cc4)CC3)CC[C@]3(C)C(CC[C@@H]4[C@@]5(C)CCC(=O)C(C)(C)C5CC[C@]43C)[C@@H]12 (stereo partly drawn) [Compound 6 of FIG. 1, 4-(4′-trifluoromethylphenylpiperazine-1-yl) amide betulonic acid] | – | – | – | – | activity (ranking among the samples) (four kinds of bacteria): highest
gentamicin [reference compound] | 19 | 17 | 16 | 21 | –
